From ChEMBL document CHEMBL3044982, “Cross-resistance, inheritance and biochemical mechanisms of imidacloprid resistance in B-biotype Bemisia tabaci” (2009) come the findings set out here.

Common to all, as to format: functional
The test system of experiment [1] is Bemisia tabaci. The experiment can be described thus: Insecticidal activity against adult female imidacloprid-resistant Bemisia tabaci B-biotype NJ-Imi (sweet potato whitefly) (G30) in cotton leaf discs assessed as mortality treated for 10 secs prior to adult infestation measured after 72 hr by leaf-dip bioassay. The conditions noted are these: foliar.
In experiment [2] the test system is Bemisia tabaci. The experiment can be described thus: Insecticidal activity against adult female imidacloprid-susceptible Bemisia tabaci B-biotype NJ (sweet potato whitefly) in cotton leaf discs assessed as mortality treated for 10 secs prior to adult infestation measured after 72 hr by leaf-dip bioassay. The note with it: foliar.
Experiment [3] deals with Bemisia tabaci. The experiment can be described thus: Resistance factor, ratio of LC50 for adult female Bemisia tabaci B-biotype NJ-Imi (sweet potato whitefly) (G30) to LC50 for adult female B-type Bemisia tabaci NJ.
In experiment [4] the test system is Bemisia tabaci. The experiment can be described thus: Insecticidal activity against adult female imidacloprid-resistant Bemisia tabaci B-biotype NJ-Imi (sweet potato whitefly) (G15) in cotton leaf discs assessed as mortality treated for 10 secs prior to adult infestation measured after 72 hr by leaf-dip bioassay. The conditions noted are these: foliar.
The subject of experiment [5] is Bemisia tabaci. The experiment can be described thus: Resistance factor, ratio of LC50 for adult female Bemisia tabaci B-biotype NJ-Imi (sweet potato whitefly) (G15) to LC50 for adult female B-type Bemisia tabaci NJ.
Experiment [6] has as its system Bemisia tabaci. The experiment can be described thus: Insecticidal activity against female F1 progeny generated from reciprocal cross between female Bemisia tabaci B-biotype NJ-Imi (sweet potato whitefly) with male Bemisia tabaci B-biotype NJ in cotton leaf discs assessed as mortality treated for 10 secs prior to adult infestation measured after 72 hr by leaf-dip bioassay. The conditions noted are these: foliar.

Experiment [7] deals with Bemisia tabaci. The experiment can be described thus: Synergistic ratio of LC50 for adult female Bemisia tabaci B-biotype NJ-Imi (sweet potato whitefly) (G30) to LC50 for adult female Bemisia tabaci B-biotype NJ in presence of 100 mg/L GSH depleter, DEM.
Experiment [8] relates to Bemisia tabaci. The experiment can be described thus: Insecticidal activity against adult female Bemisia tabaci B-biotype NJ (sweet potato whitefly) in cotton leaf discs assessed as mortality treated for 10 secs prior to adult infestation measured after 72 hr by leaf-dip bioassay in presence of 100 mg/L GSH depleter, DEM. The conditions noted are these: foliar.
The test system of experiment [9] is Bemisia tabaci. The experiment can be described thus: Synergistic ratio of LC50 for adult female Bemisia tabaci B-biotype NJ-Imi (sweet potato whitefly) (G30)to LC50 for adult female Bemisia tabaci B-biotype NJ in presence of 100 mg/L esterase inhibitor, DEF.
Experiment [10] concerns Bemisia tabaci. The experiment can be described thus: Synergistic ratio of LC50 for adult female Bemisia tabaci B-biotype NJ (sweet potato whitefly) to LC50 for adult female Bemisia tabaci B-biotype NJ in presence of 100 mg/L esterase inhibitor, DEF.
Experiment [11] has as its system Bemisia tabaci. The experiment can be described thus: Insecticidal activity against adult female Bemisia tabaci B-biotype NJ (sweet potato whitefly) in cotton leaf discs assessed as mortality treated for 10 secs prior to adult infestation measured after 72 hr by leaf-dip bioassay in presence of 100 mg/L cytochrome P450 monoxygenase inhibitor, PBO. The conditions noted are these: foliar.

Experiment [12] concerns Bemisia tabaci. The experiment can be described thus: Insecticidal activity against adult female Bemisia tabaci B-biotype NJ-Imi (sweet potato whitefly) (G15) in cotton leaf discs assessed as mortality treated for 10 secs prior to adult infestation measured after 72 hr by leaf-dip bioassay in presence of 100 mg/L GSH depleter, DEM. The conditions noted are these: foliar.

The test system of experiment [13] is Bemisia tabaci. The experiment can be described thus: Synergistic ratio of LC50 for adult female Bemisia tabaci B-biotype NJ-Imi (sweet potato whitefly) (G15)to LC50 for adult female Bemisia tabaci B-biotype NJ in presence of 100 mg/L esterase inhibitor, DEF.
Experiment [14] relates to Bemisia tabaci. The experiment can be described thus: Insecticidal activity against adult female Bemisia tabaci B-biotype NJ-Imi (sweet potato whitefly) (G30) in cotton leaf discs assessed as mortality treated for 10 secs prior to adult infestation measured after 72 hr by leaf-dip bioassay in presence of 100 mg/L GSH depleter, DEM. The conditions noted are these: foliar.

Experiment [15] has as its system Bemisia tabaci. The experiment can be described thus: Insecticidal activity against adult female Bemisia tabaci B-biotype NJ-Imi (sweet potato whitefly) (G30) in cotton leaf discs assessed as mortality treated for 10 secs prior to adult infestation measured after 72 hr by leaf-dip bioassay in presence of 100 mg/L esterase inhibitor, DEF. The conditions noted are these: foliar.

Experiment [16] deals with Bemisia tabaci. The experiment can be described thus: Synergistic ratio of LC50 for adult female Bemisia tabaci B-biotype NJ-Imi (sweet potato whitefly) (G15) to LC50 for adult female Bemisia tabaci B-biotype NJ in presence of 100 mg/L GSH depleter, DEM.
Experiment [17] deals with Bemisia tabaci. The experiment can be described thus: Resistance factor, ratio of LC50 for female Bemisia tabaci B-biotype NJ-Imi F1 (sweet potato whitefly) progeny to LC50 for adult female B-type Bemisia tabaci NJ.
Experiment [18] relates to Bemisia tabaci. The experiment can be described thus: Synergistic ratio of LC50 for adult female Bemisia tabaci B-biotype NJ-Imi (sweet potato whitefly) (G15) to LC50 for adult female Bemisia tabaci B-biotype NJ in presence of 100 mg/L cytochrome P450 monoxygenase inhibitor, PBO.
The subject of experiment [19] is Bemisia tabaci. The experiment can be described thus: Insecticidal activity against female F1' progeny generated from reciprocal cross between male B-biotype Bemisia tabaci NJ-Imi (sweet potato whitefly) with female B-biotype Bemisia tabaci NJ in cotton leaf discs assessed as mortality treated for 10 secs prior to adult infestation measured after 72 hr by leaf-dip bioassay. The note with it: foliar.

For experiment [20], the system named is Bemisia tabaci. The experiment can be described thus: Resistance factor, ratio of LC50 for female B-biotype Bemisia tabaci NJ-Imi F1' (sweet potato whitefly) progeny to LC50 for adult female B-type Bemisia tabaci NJ.
Experiment [21] concerns Bemisia tabaci. The experiment can be described thus: Synergistic ratio of LC50 for adult female Bemisia tabaci B-biotype NJ-Imi (sweet potato whitefly) (G30) to LC50 for adult female Bemisia tabaci B-biotype NJ in presence of 100 mg/L cytochrome P450 monoxygenase inhibitor, PBO.
Experiment [22] concerns Bemisia tabaci. The experiment can be described thus: Insecticidal activity against adult female Bemisia tabaci B-biotype NJ-Imi (sweet potato whitefly) (G15) in cotton leaf discs assessed as mortality treated for 10 secs prior to adult infestation measured after 72 hr by leaf-dip bioassay in presence of 100 mg/L cytochrome P450 monoxygenase inhibitor, PBO. The conditions noted are these: foliar.

Experiment [23] has as its system Bemisia tabaci. The experiment can be described thus: Resistance factor, ratio of LC50 for adult male Bemisia tabaci B-biotype NJ-Imi (sweet potato whitefly) (G30) to LC50 for adult female B-type Bemisia tabaci NJ.
Experiment [24] concerns Bemisia tabaci. The experiment can be described thus: Insecticidal activity against adult female Bemisia tabaci B-biotype NJ-Imi (sweet potato whitefly) (G15) in cotton leaf discs assessed as mortality treated for 10 secs prior to adult infestation measured after 72 hr by leaf-dip bioassay in presence of 100 mg/L esterase inhibitor, DEF. The conditions noted are these: foliar.

Experiment [25] relates to Bemisia tabaci. The experiment can be described thus: Synergistic ratio of LC50 for adult female Bemisia tabaci B-biotype NJ (sweet potato whitefly) to LC50 for adult female Bemisia tabaci B-biotype NJ in presence of 100 mg/L GSH depleter, DEM.
Experiment [26] concerns Bemisia tabaci. The experiment can be described thus: Insecticidal activity against adult female Bemisia tabaci B-biotype NJ (sweet potato whitefly) in cotton leaf discs assessed as mortality treated for 10 secs prior to adult infestation measured after 72 hr by leaf-dip bioassay in presence of 100 mg/L esterase inhibitor, DEF. The conditions noted are these: foliar.
The subject of experiment [27] is Bemisia tabaci. The experiment can be described thus: Synergistic ratio of LC50 for adult female Bemisia tabaci B-biotype NJ (sweet potato whitefly) to LC50 for adult female Bemisia tabaci B-biotype NJ in presence of 100 mg/L cytochrome P450 monoxygenase inhibitor, PBO.
In experiment [28] the test system is Bemisia tabaci. The experiment can be described thus: Insecticidal activity against adult female Bemisia tabaci B-biotype NJ-Imi (sweet potato whitefly) (G30) in cotton leaf discs assessed as mortality treated for 10 secs prior to adult infestation measured after 72 hr by leaf-dip bioassay in presence of 100 mg/L cytochrome P450 monoxygenase inhibitor, PBO. The conditions noted are these: foliar.

The test system of experiment [29] is Bemisia tabaci. The experiment can be described thus: Insecticidal activity against adult male Bemisia tabaci B-biotype NJ-Imi (sweet potato whitefly) (G30) in cotton leaf discs assessed as mortality treated for 10 secs prior to adult infestation measured after 72 hr by leaf-dip bioassay. The note with it: foliar.

The LC50 is the concentration lethal to half of the exposed cells or organisms.

Values after ≈ are worked out from the molar mass of the structure shown.

In the case of `CC[C@H](C)[C@H]1O[C@]2(C=C[C@@H]1C)C[C@@H]1C[C@@H](C/C=C(\C)[C@@H](O[C@H]3C[C@H](OC)[C@@H](O[C@H]4C[C@H](OC)[C@@H](O)[C@H](C)O4)[C@H](C)O3)[C@@H](C)/C=C/C=C3\CO[C@@H]4[C@H](O)C(C)=C[C@@H](C(=O)O1)[C@]34O)O2.CO[C@H]1C[C@H](O[C@H]2[C@H](C)O[C@@H](O[C@@H]3/C(C)=C/C[C@@H]4C[C@@H](C[C@]5(C=C[C@H](C)[C@@H](C(C)C)O5)O4)OC(=O)[C@@H]4C=C(C)[C@@H](O)[C@H]5OC/C(=C\C=C\[C@@H]3C)[C@]54O)C[C@@H]2OC)O[C@@H](C)[C@@H]1O` [ABAMECTIN], the figures for the LC50 in the experiment with Bemisia tabaci [1] and with Bemisia tabaci [2] were 0.92 µg/mL and 0.8 µg/mL, respectively. Moreover, the RatioLC50 in the experiment with Bemisia tabaci [3] is given as 1.

Turning to `C/C(=N\C#N)N(C)Cc1ccc(Cl)nc1` [ACETAMIPRID], the LC50 in the experiment with Bemisia tabaci [1] came to 186 µg/mL (≈ 835 µM); in the experiment with Bemisia tabaci [2] it was 1.3 µg/mL (≈ 5.84 µM); in the experiment on Bemisia tabaci [4], 63 µg/mL (≈ 283 µM). The RatioLC50 with Bemisia tabaci [3] was found to be 143; with Bemisia tabaci [5] it was 49.

On to `CC1(C)C(C=C(Cl)Cl)C1C(=O)OC(C#N)c1cccc(Oc2ccccc2)c1` (stereo not drawn) [ALPHA-CYPERMETHRIN], for which the LC50 with Bemisia tabaci [1] was found to be 263 µg/mL (≈ 632 µM); with Bemisia tabaci [2], 226 µg/mL (≈ 543 µM); with Bemisia tabaci [4] it was 230 µg/mL (≈ 552 µM). Further, the RatioLC50 in the experiment with Bemisia tabaci [3] and with Bemisia tabaci [5] was 1 in each case.

As to `CN(C)C(CSC(N)=O)CSC(N)=O` [CARTAP], the LC50 in the experiment on Bemisia tabaci [1] came to 17.4 µg/mL (≈ 73.3 µM); with Bemisia tabaci [2], 1.55 µg/mL (≈ 6.53 µM). Besides, in the experiment with Bemisia tabaci [3], the RatioLC50 was found to be 11.

On to `O=[N+]([O-])/N=C1\NCCN1Cc1ccc(Cl)nc1` [IMIDACLOPRID], for which the LC50 in the experiment on Bemisia tabaci [6] turned out to be 30.9 µg/mL (≈ 121 µM); in the experiment with Bemisia tabaci [1], 485 µg/mL (≈ 1900 µM); with Bemisia tabaci [8], 1.22 µg/mL; in the experiment on Bemisia tabaci [2], 0.99 µg/mL (≈ 3.87 µM); with Bemisia tabaci [11], 0.91 µg/mL; with Bemisia tabaci [4], 254 µg/mL (≈ 993 µM). The LC50 in the experiment with Bemisia tabaci [12] was 273 µg/mL; in the experiment on Bemisia tabaci [14], 357 µg/mL; in the experiment with Bemisia tabaci [15], 371 µg/mL; in the experiment on Bemisia tabaci [19] it was 28.6 µg/mL (≈ 112 µM); in the experiment on Bemisia tabaci [22] it was 102 µg/mL; in the experiment with Bemisia tabaci [24], 94 µg/mL. Moreover, the LC50 with Bemisia tabaci [26] is 0.4 µg/mL; in the experiment with Bemisia tabaci [28], 231 µg/mL; in the experiment on Bemisia tabaci [29], 411 µg/mL (≈ 1610 µM). Moreover, the RatioLC50 in the experiment on Bemisia tabaci [7] came to 1.4; with Bemisia tabaci [9], 1.3; with Bemisia tabaci [10], 2.5; in the experiment with Bemisia tabaci [13], 2.7; in the experiment on Bemisia tabaci [3], 490; in the experiment on Bemisia tabaci [5], 257. Also, the RatioLC50 with Bemisia tabaci [16] is 0.9; in the experiment on Bemisia tabaci [17], 31; in the experiment on Bemisia tabaci [18], 2.5; in the experiment with Bemisia tabaci [20], 29; in the experiment with Bemisia tabaci [21], 2.1; in the experiment with Bemisia tabaci [23] it was 415. The RatioLC50 amounted to 0.8 with Bemisia tabaci [25] and 1.1 in the experiment with Bemisia tabaci [27].

For `CN(C)C(CSS(=O)(=O)[O-])CSS(=O)(=O)O.[Na+]` [MONOSULTAP], the LC50 in the experiment on Bemisia tabaci [1] amounted to 294 µg/mL; in the experiment with Bemisia tabaci [2] it was 43.9 µg/mL; in the experiment with Bemisia tabaci [4] it was 297 µg/mL. Moreover, the RatioLC50 in the experiment with Bemisia tabaci [3] and with Bemisia tabaci [5] was 7 each time.

With `CCN(Cc1ccc(Cl)nc1)/C(=C/[N+](=O)[O-])NC` [NITENPYRAM], the LC50 is 93 µg/mL (≈ 344 µM) with Bemisia tabaci [1] and 0.99 µg/mL (≈ 3.66 µM) in the experiment on Bemisia tabaci [2]. For the same compound, in the experiment on Bemisia tabaci [3], the RatioLC50 was 94.

With `N#C/N=C1\SCCN1Cc1ccc(Cl)nc1` [THIACLOPRID], the figures for the LC50 in the experiment on Bemisia tabaci [1] and with Bemisia tabaci [2] were 37.3 µg/mL (≈ 148 µM) and 1.02 µg/mL (≈ 4.04 µM), respectively. Besides, the RatioLC50 with Bemisia tabaci [3] stood at 37.

For `CN1COCN(Cc2cnc(Cl)s2)/C1=N\[N+](=O)[O-]` [THIAMETHOXAM], the LC50 in the experiment with Bemisia tabaci [1] is 289 µg/mL (≈ 991 µM); in the experiment on Bemisia tabaci [2], 1.19 µg/mL (≈ 4.08 µM); in the experiment with Bemisia tabaci [4], 110 µg/mL (≈ 377 µM). For the same compound, the results for the RatioLC50 in the experiment with Bemisia tabaci [3] and with Bemisia tabaci [5] were 243 and 92, respectively.
